In ChEMBL document CHEMBL5653631, “A Potent and Selective ULK1 Inhibitor Suppresses Autophagy and Sensitizes Cancer Cells to Nutrient Stress” (iScience, 2018):

Experiments:
[1] = molecular target: Ribosomal protein S6 kinase alpha-3 (Homo sapiens) (UniProt P51812); assay: Inhibition of human recombinant RSK2 at 40 nM related to control ULK1
[2] = molecular target: T1, Tyrosine-protein kinase JAK3 (Homo sapiens) (UniProt P52333); assay: Inhibition of human recombinant JAK3 at 500 nM in presence of ATP by radiometric assay relative to control
T1 sequence (whole entry): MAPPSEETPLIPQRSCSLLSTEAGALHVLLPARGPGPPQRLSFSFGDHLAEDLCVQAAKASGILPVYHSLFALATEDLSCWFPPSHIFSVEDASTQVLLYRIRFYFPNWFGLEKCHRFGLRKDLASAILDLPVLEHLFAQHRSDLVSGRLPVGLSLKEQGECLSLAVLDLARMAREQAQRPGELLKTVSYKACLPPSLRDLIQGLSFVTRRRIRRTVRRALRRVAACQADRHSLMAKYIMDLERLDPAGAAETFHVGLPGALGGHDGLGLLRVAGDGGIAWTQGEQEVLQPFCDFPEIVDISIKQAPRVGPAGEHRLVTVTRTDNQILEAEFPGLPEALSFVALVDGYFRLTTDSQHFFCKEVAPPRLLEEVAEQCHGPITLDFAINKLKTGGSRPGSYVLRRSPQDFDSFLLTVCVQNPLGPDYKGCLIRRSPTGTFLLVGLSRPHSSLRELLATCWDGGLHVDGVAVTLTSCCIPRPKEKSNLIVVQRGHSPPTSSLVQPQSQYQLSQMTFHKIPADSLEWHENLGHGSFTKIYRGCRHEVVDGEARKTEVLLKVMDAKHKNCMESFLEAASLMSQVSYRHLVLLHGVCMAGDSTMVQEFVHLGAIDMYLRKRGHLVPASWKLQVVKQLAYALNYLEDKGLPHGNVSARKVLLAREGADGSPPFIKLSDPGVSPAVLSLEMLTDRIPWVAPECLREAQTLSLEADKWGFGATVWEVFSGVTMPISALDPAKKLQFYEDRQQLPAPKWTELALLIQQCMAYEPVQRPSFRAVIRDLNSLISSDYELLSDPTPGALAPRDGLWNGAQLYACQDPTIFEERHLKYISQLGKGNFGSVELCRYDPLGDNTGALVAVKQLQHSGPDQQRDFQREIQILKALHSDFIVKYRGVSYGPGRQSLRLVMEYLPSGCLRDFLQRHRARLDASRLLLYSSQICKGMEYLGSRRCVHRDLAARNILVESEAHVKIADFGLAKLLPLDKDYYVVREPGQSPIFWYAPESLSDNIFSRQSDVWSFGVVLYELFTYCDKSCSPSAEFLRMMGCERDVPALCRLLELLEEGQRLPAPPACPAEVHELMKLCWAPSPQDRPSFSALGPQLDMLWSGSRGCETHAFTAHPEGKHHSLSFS

[3] = molecular target: T2, Serine/threonine-protein kinase Sgk3 (Homo sapiens) (UniProt Q96BR1); assay: Inhibition of human recombinant SGK3 at 500 nM in presence of ATP by radiometric assay relative to control
T2 sequence (whole entry): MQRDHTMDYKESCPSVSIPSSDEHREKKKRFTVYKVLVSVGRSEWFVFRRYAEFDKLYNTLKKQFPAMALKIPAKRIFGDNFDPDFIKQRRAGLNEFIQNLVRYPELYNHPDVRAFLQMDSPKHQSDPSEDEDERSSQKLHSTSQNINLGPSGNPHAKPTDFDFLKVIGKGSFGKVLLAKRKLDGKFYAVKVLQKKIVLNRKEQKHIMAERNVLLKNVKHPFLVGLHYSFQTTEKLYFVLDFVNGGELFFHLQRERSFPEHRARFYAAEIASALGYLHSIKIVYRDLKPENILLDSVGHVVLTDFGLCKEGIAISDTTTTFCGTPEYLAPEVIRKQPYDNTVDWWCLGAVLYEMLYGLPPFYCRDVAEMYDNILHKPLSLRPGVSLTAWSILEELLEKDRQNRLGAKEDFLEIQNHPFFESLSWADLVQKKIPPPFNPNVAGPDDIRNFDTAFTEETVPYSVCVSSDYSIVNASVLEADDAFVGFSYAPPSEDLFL

[4] = molecular target: T3, Ephrin type-A receptor 8 (Homo sapiens) (UniProt P29322); assay: Inhibition of human recombinant EphA8 at 500 nM in presence of ATP by radiometric assay relative to control
T3 sequence (whole entry): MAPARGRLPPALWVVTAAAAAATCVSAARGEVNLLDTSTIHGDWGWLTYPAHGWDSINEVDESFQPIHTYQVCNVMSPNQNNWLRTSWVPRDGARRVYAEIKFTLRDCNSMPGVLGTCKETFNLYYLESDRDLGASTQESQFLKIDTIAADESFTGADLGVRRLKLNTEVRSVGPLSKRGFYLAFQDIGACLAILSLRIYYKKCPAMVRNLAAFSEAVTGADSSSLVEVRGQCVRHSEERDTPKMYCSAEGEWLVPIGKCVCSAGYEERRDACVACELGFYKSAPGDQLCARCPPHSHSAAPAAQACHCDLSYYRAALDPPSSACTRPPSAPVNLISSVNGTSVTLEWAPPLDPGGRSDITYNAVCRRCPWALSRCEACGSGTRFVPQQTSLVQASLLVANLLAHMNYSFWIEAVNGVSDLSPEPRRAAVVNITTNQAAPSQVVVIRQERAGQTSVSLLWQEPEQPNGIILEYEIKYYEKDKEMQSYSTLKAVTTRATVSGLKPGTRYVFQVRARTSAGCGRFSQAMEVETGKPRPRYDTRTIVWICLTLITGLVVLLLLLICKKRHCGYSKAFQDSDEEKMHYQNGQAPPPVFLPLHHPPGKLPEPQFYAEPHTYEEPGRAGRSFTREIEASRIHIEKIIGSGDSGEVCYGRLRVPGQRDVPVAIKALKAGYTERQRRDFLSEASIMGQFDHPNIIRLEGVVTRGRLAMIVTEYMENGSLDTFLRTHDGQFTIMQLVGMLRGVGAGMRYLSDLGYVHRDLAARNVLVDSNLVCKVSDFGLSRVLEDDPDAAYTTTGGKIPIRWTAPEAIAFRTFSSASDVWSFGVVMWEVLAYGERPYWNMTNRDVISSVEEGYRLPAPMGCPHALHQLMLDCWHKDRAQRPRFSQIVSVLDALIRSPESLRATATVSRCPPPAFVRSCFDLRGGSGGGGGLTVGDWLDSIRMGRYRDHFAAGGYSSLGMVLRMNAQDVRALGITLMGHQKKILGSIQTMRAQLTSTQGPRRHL

[5] = molecular target: Serine/threonine-protein kinase MAK (Homo sapiens) (UniProt P20794); assay: Inhibition of human recombinant MAK at 500 nM in presence of ATP by radiometric assay relative to control
Serine/threonine-protein kinase MAK (Homo sapiens), sequence (P20794 whole entry, looked up): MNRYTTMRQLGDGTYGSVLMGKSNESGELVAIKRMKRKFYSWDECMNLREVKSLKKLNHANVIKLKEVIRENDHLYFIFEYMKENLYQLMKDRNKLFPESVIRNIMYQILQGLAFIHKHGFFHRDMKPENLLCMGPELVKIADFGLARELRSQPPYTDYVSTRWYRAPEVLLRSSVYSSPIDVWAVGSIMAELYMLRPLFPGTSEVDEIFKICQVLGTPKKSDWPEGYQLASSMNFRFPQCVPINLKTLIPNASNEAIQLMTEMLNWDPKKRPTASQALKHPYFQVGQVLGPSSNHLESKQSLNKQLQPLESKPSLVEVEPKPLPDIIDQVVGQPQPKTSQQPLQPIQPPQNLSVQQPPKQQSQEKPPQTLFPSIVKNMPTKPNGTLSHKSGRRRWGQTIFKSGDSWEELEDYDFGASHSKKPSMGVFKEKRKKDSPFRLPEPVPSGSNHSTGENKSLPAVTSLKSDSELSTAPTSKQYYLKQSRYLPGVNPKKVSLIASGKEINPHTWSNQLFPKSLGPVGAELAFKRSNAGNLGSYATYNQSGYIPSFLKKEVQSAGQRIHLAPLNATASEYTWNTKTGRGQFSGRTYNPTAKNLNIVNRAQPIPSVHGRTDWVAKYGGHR

[6] = molecular target: Tyrosine-protein kinase Tec (Homo sapiens) (UniProt P42680); assay: Inhibition of human recombinant TEC at 15 nM related to control ULK1
Tyrosine-protein kinase Tec (Homo sapiens), sequence (P42680 whole entry, looked up): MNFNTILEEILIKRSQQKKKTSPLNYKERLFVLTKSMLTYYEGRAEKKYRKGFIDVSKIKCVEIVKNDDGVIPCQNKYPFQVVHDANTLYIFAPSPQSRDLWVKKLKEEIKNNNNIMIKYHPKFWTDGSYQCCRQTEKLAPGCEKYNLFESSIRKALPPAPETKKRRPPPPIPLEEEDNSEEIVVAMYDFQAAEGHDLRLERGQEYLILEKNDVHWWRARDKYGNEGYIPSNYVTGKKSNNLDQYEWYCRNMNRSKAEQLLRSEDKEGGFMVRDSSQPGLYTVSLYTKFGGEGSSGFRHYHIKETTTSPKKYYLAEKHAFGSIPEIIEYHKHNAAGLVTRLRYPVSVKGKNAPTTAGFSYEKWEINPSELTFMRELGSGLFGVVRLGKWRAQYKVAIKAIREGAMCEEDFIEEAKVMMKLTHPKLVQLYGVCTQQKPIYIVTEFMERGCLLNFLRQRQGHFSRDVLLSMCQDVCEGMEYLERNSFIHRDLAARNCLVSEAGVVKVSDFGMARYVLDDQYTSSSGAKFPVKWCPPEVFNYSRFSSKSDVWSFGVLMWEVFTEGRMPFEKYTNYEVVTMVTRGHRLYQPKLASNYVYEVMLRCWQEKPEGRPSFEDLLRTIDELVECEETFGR

[7] = molecular target: Receptor-interacting serine/threonine-protein kinase 2 (Homo sapiens) (UniProt O43353); assay: Inhibition of human recombinant RIPK2 at 15 nM in presence of ATP by radiometric assay relative to control
Receptor-interacting serine/threonine-protein kinase 2 (Homo sapiens), sequence (O43353 whole entry): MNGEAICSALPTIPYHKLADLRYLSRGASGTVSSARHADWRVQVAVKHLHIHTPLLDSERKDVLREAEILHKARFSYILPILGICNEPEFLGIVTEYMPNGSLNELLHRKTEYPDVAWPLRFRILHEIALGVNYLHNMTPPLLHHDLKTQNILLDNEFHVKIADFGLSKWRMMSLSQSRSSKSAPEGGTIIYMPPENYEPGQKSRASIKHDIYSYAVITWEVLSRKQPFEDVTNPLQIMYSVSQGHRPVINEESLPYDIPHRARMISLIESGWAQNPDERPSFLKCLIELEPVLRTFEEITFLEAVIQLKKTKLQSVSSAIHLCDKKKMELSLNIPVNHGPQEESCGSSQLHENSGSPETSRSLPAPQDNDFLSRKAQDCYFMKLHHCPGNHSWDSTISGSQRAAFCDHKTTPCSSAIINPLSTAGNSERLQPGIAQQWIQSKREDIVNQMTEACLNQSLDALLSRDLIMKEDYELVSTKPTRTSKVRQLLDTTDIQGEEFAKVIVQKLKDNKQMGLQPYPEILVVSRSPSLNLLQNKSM

Ribosomal protein S6 kinase alpha-3 (Homo sapiens), sequence (P51812 whole entry): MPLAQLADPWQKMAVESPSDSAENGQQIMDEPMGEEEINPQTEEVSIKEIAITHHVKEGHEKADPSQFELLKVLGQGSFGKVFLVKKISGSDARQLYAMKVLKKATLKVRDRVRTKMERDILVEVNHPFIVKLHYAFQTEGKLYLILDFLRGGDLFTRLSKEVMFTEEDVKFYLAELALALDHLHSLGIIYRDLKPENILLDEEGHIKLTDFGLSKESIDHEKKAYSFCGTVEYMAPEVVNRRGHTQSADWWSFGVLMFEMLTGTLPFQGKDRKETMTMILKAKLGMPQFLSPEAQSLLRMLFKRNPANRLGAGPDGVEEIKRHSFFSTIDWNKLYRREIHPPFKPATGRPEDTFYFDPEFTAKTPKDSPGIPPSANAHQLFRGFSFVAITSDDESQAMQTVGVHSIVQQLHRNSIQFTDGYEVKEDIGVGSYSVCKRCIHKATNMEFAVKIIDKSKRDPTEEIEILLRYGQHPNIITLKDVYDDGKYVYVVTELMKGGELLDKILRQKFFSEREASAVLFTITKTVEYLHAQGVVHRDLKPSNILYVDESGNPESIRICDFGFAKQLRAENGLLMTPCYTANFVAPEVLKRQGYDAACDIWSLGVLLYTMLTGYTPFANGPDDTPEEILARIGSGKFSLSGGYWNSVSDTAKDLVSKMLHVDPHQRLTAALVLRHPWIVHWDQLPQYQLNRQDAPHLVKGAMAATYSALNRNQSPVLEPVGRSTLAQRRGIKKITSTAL

For `O=C(N[C@@H](C1CC1)C(F)(F)F)c1cc(-c2cnn3cc(-c4ccc(F)cc4)cnc23)cs1`, the fold change (FC) [1] was 0.
`CNC(=O)c1ccccc1Oc1nc(Nc2cc(OC)c(OC)c(OC)c2)ncc1Br` gave an inhibition [2] of 21%, an inhibition [3] of 1% and an inhibition [4] of 2%. The inhibition [5] was 36%.
`CC(C)[C@H](NC(=O)c1cc(-c2cnn3cc(-c4ccc(OCCN5CCCCC5)cc4)cnc23)cs1)C(F)(F)F` gave a fold change (FC) [6] of 0 and an inhibition [7] of 10%.
